Columns and labels:
Format in all cases: functional
Mus musculus [1] = species on record: Mus musculus; assay: (§1) Percent uM/cm**2; design: concentration or dose not given beside the values
Mus musculus [2] = species on record: Mus musculus; assay: Inhibitory activity against mouse uM/cm**2 (control=7.0)
Mus musculus [3] = species on record: Mus musculus; assay: as §1

Row | Structure (SMILES) | Reduction (Mus musculus [1]) [%] | ear oedema weight (Mus musculus [2]) [mg] | Reduction (Mus musculus [3]) [%]
1 | CC(=O)Oc1c(OC/C=C(\C)CCC=C(C)C)ccc2ccc(=O)oc12 | 51 | 3.4 | 
2 | CC(C)=CCC/C(C)=C/COc1ccc2ccc(=O)oc2c1C | 31 | 4.8 | 
3 | CC(C)=CCC/C(C)=C/COc1ccc2ccc(=O)oc2c1O | 39 | 4.3 | 
4 | CC(C)=CCC/C(C)=C/COc1ccc2ccc(=O)oc2c1Cl | 36 | 4.5 | 
5 | CCCCCOc1c(OC/C=C(\C)CCC=C(C)C)ccc2ccc(=O)oc12 | 9 | 6.4 | 
6 | CC(C)=CCC/C(C)=C/COc1ccc2ccc(=O)oc2c1OC/C=C(\C)CCC=C(C)C | 27 | 5.1 | 
7 | CC(C)=CCC/C(C)=C/COc1ccc2ccc(=O)oc2c1F | 27 | 5.1 | 
8 | CC(C)=CCC/C(C)=C/COc1ccc2ccc(=O)oc2c1Br | 43 | 4 | 
9 | CC(C)=CCC/C(C)=C/COc1ccc2ccc(=O)oc2c1I | 29 | 5 | 
10 | CC(C)=CCC/C(C)=C/COc1ccc2ccc(=O)oc2c1 [AURAPTENE] | 51 | 3.4 | 
11 | COc1c(OC/C=C(\C)CCC=C(C)C)ccc2ccc(=O)oc12 [COLLININ] | 47 | 3.7 | 
12 | COc1ccc2c(c1)c(CC(=O)O)c(C)n2C(=O)c1ccc(Cl)cc1 [INDOMETHACIN] |  | 3.7 | 47
